Experimental data: patent US9315448B2 (Cesa Alliance S.A., priority 2011, dated 2016)

Tests used:
Parvovirus = experiment: Case study, Parvo infected puppy; conditions: for Treated - Improvement / Treated Virus or symptom free: Dog (puppy), 300 mg, 3 times/day, 4 days, wt.% per Table 2; for confirmed Parvo free / recovered completely / showed signs of recovery: puppy, 300 mg three times a day for 4 days
[1] = system: DNA enveloped, DNA non-enveloped, RNA enveloped and RNA non-enveloped viruses; experiment: In vivo case studies, overall conclusions across virus families; conditions: no base oil
Canine Herpes virus = experiment: Case study, Canine Herpes infected puppy; assay type: in vivo, Dog (puppy); conditions: for Treated - Improvement / Treated Virus or symptom free: Dog (puppy), 300 mg, 3 times/day, 4 days, wt.% per Table 2
Rotavirus = experiment: Case study, piglets with confirmed Rotavirus infections; assay type: in vivo, Pig (piglet); conditions: for Treated - Improvement / Treated Virus or symptom free: Pig (piglet), 2 days, wt.% per Table 2; for de-activation of the Rota virus confirmed / recovered completely / stopped having diarrhea: piglets
Method: All three piglets, which would normally experience 3 to 4 days of severe symptoms including diarrhea stopped having diarrhea on/after one day. The de-activation of the Rota virus infected was confirmed on/after the second day. The piglets recovered completely within 2 days.
Three piglets with confirmed Rotavirus infections were treated immediately with 50 mg of the compound of formula B, six times a day for 2 days. All 3 piglets, which would normally experience 4 to 5 days of severe symptoms including diarrhea stopped having diarrhea on/after the second day.
Both piglets, which would normally experience 3 to 4 days of severe symptoms including diarrhea stopped having diarrhea after one day.
(§1) All 3 piglets, which would normally experience 3 to 4 days of severe symptoms including diarrhea stopped having diarrhea after one day.
(§2) All 3 piglets, which would normally experience 3 to 4 days of severe symptoms including diarrhea stopped having diarrhea on/after one day.
as §2, §1

[2] = system: Porcine reproductive and respiratory syndrome virus; experiment: Case study, PRRS confirmed piglets; assay type: in vivo, Pig (piglet); conditions: for Treated - Improvement / Treated Virus or symptom free: Pig (piglet), wt.% per Table 2; for confirmed PRRS free / recovered completely / showed signs of recovery: piglets
[3] = system: human papilloma virus 2 and 7; experiment: Case study, skin warts of a patient
Method: Skin warts of patient were treated with 10 mg of the compound of formula B, three times a day for 3 days.
Skin warts of a patient were treated with 10 mg of the compound of formula B+C, three times a day for 3 days.
Skin warts of a patient were treated with 10 mg of the compound of formula A+B+C, three times a day for 3 days.

[4] = system: herpes simplex virus type 1; experiment: Case study, Herpes Labialis patient, topical treatment; assay type: in vivo, Human
[5] = puppy, 300 mg three times a day for 4 days
[6] = 500 mg three times a day for 2 days
[7] = 500 mg three times a day for 4 days
[8] = Human (skin), 10 mg, 3 times/day, 3 days, wt.% per Table 2
[9] = Human (skin), 10 mg, 3 times/day, 1 day, wt.% per Table 2
[10] = patient, topical, 10 mg three times a day for 1 day, from onset of lesions
[11] = 50 mg six times a day for 2 days
[12] = 50 mg six times a day for 3 days

| Structure (SMILES) | Treated - Improvement (Parvovirus) [days] | Treated Virus or symptom free (Parvovirus) | confirmed Parvo free (Parvovirus) | recovered completely (Parvovirus) [days] | showed signs of recovery (Parvovirus) | results with 100 wt. % of compound compared with Tables 1 and 2 [1] | Treated - Improvement (Canine Herpes virus) [days] | Treated Virus or symptom free (Canine Herpes virus) | confirmed Herpes free (Canine Herpes virus; [5]) | recovered completely (Canine Herpes virus; [5]) [days] | Treated - Improvement (Rotavirus; 500 mg, 3 times/day) [days] | Treated Virus or symptom free (Rotavirus; 500 mg, 3 times/day) | de-activation of the Rota virus confirmed (Rotavirus; [6]) | recovered completely (Rotavirus; [6]) [days] | stopped having diarrhea (Rotavirus; [6]) | Treated - Improvement ([2]; 500 mg, 3 times/day, 4 days) [days] | Treated Virus or symptom free ([2]; 500 mg, 3 times/day, 4 days) | confirmed PRRS free [2, 7] | recovered completely [2, 7] [days] | showed signs of recovery [2, 7] | other results |
| --- | --- | --- | --- | --- | --- | --- | --- | --- | --- | --- | --- | --- | --- | --- | --- | --- | --- | --- | --- | --- | --- |
| C=C=C(C)c1cc(O)c(O)c(C(=O)O[C@](C)(O)C=C)c1 [Formula C, 2,3(dihydroxy), 5[3(1,2)butadiene], 2hydroxy,3butene benzoate] | 1 | Day 4 | 4 day of treatment | 6 | first | same results | 2 | Day 4 | 4 day of treatment | 7 | 1 | Day 2 | first | ≤ 2 | one | 1 | Day 2 | 2 day of treatment | 4 | one | – |
| C=C=C(C)c1cc(O)c(O)c(C(=O)C(C)C(C)(C)O)c1 (stereo not shown) [Formula B, 2,3(dihydroxy), 5[3(1,2)butadiene], 2[2-methylbutane]benzenal] | – | – | – | – | – | same results | – | – | – | – | – | – | – | – | – | – | – | – | – | – | Treated - Improvement [3, 8]: 7 days; Treated Virus or symptom free [3, 8]: 21 days; skin tissue disappeared completely ([3]; patient, 10 mg three times a day for 3 days): 3 weeks; warts started to soften and becoming white ([3]; patient, 10 mg three times a day for 3 days, time printed in words): a week; Treated - Improvement [4, 9]: 3 days; Treated Virus or symptom free [4, 9]: Day 4; course of the infection [4, 10]: did not get worse; lesions started to disappear [4, 10]: second; no more signs of infection [4, 10]: 4 days; Treated - Improvement (Rotavirus; 50 mg, 6 times/day): 2 days; Treated Virus or symptom free (Rotavirus; 50 mg, 6 times/day): Day 3; de-activation of the Rota virus confirmed (Rotavirus; [11]): second; recovered completely (Rotavirus; [11]): ≤ 3 days; stopped having diarrhea (Rotavirus; [11]): second; Treated - Improvement ([2]; 50 mg, 6 times/day, 3 days): 2 days; Treated Virus or symptom free ([2]; 50 mg, 6 times/day, 3 days): Day 3; confirmed PRRS free [2, 12]: 3 day of treatment; recovered completely [2, 12]: 4 days; showed signs of recovery [2, 12]: second |
| C=C=C(C)c1cc(O)c(O)c(C(=O)C[C@](C)(O)C=C)c1 [Formula A] | 1 | Day 4 | 4 day of treatment | 6 | first | same results | 2 | Day 4 | 4 day of treatment | 10 | 1 | Day 2 | second | ≤ 2 | one | 1 | Day 2 | 2 day of treatment | 4 | one | showed signs of recovery (Canine Herpes virus; [5]): second |
